# Experimental data reported in article PMC6934184, “Selective DNA-PKcs inhibition extends the therapeutic index of localized radiotherapy and chemotherapy” (The Journal of Clinical Investigation, 2019).
# Biological target: T1, AMPK A2/B1/G1 (Homo sapiens, UniProt P54646)
# T1 construct: purchased Thermo Fisher Scientific (Life Technologies) SelectScreen
# Assay: SelectScreen Z'LYTE
# Type: biochemical
# In short: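 Compound tested in SelectScreen activity assays, Z'LYTE for CSF1R, CDK1/cyclin B and MAP2K6 and Adapta for CAMK1. ATP for CAMK1 was listed as 10, and Km app was used for CSF1R. Results are expressed in percent.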
# T1 sequence (P54646 whole entry): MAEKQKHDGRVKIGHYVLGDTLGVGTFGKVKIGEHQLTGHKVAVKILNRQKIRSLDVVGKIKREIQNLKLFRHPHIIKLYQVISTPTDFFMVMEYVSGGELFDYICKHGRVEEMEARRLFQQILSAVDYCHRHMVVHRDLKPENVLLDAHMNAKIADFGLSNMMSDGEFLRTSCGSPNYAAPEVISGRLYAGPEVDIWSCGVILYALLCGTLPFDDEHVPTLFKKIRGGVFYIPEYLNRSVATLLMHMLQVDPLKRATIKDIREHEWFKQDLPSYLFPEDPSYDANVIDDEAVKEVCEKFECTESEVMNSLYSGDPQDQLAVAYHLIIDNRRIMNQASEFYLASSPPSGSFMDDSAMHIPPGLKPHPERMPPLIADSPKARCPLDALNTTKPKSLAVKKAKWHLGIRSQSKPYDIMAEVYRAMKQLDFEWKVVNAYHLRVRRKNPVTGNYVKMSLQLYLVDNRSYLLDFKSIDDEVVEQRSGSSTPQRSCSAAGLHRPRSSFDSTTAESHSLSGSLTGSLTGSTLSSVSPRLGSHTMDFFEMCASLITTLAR
# T1 sequence (Q9Y478 whole entry partner): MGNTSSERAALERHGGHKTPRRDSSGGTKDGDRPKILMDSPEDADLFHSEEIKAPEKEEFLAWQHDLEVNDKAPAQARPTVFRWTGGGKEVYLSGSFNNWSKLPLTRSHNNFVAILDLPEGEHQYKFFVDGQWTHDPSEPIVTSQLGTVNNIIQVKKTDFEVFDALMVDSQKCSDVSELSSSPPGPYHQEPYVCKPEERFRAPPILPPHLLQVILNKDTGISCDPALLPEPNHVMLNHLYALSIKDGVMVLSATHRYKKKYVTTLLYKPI
# T1 sequence (P54619 whole entry partner): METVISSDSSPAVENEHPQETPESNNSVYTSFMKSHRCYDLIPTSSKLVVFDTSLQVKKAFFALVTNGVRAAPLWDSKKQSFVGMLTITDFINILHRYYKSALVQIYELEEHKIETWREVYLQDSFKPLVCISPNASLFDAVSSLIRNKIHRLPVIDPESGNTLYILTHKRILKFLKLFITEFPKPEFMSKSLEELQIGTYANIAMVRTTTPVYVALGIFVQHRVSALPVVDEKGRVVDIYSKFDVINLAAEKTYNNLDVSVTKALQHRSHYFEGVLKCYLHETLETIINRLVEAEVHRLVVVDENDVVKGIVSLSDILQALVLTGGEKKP
compound,measurement,value
CN(C(=O)CN1CCOCC1)c1ccc2sc3c(-c4cccc5c(=O)cc(N6CC7CCC(C6)O7)oc45)cccc3c2c1 [NU5455],inhibition at 1 µM,2.6%
